Source: paper PMC7948467, “Discovery of an ultraspecific triuret hydrolase (TrtA) establishes the triuret biodegradation pathway” (The Journal of Biological Chemistry, 2020)

Legend:
[1] = biological target: T1, TrtA (Herbaspirillum sp. BH-1, UniProt A0A2N6JFX7); test: inhibition of triuret hydrolysis; type: biochemical; details: likely competitive; Ki not determinable because biuret contains about 1 mol% triuret; inhibition only above 50 mM, where TrtA precipitates; tag state not stated
T1 construct: N-terminal 6xHis tag and thrombin site kept, pET28a, E. coli BL21(DE3), codon-optimized; subunit 24 kDa, homodimer
T1 sequence (A0A2N6JFX7 1-227): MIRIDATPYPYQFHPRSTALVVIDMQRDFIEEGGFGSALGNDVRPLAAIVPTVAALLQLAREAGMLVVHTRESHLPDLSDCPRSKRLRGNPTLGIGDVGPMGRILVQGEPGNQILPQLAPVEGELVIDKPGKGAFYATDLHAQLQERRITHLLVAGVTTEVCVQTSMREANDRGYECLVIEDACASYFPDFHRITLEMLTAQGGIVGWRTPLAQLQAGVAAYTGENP

[2] = biological target: T2, RhdBiuH (Rhodococcus sp. Mel, UniProt H8ZKV9, C169S); test: X-ray crystal structure; type: binding; details: cocrystal with biuret; active site; inactive mutant
T2 construct: recombinant

[3] = biological target: T3, CtermDelΔ7+Cleaved His-tag (Herbaspirillum sp. BH-1, UniProt A0A2N6JFX7); test: ammonia release, Berthelot assay; type: biochemical; details: phosphate buffer, pH 8, 25 °C
T3 construct: gene trtA
From the text: ammonia release, Berthelot assay on CtermDelΔ7+Cleaved His-tag

T2 sequence (H8ZKV9 entry or part of it C169S): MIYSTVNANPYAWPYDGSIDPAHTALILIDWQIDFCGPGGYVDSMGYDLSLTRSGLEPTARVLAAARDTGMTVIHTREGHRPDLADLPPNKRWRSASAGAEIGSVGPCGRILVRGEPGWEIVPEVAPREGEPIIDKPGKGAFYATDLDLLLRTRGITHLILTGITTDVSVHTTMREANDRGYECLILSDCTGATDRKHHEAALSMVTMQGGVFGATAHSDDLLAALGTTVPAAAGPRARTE

Km [3] | SMILES | inhibition of triuret hydrolysis [1] | X-ray crystal structure [2]
 | NC(=O)NC(N)=O [biuret] | Inhibition data suggests that biuret is a competitive inhibitor | The cocrystal with biuret showed similar mode of binding to that of BiuH
16 ± 2 µM | NC(=O)NC(=O)NC(N)=O [triuret] |  | 
